# Source: ChEMBL document CHEMBL1681651, “A broad spectrum anticancer nucleoside with selective toxicity against human colon cells in vitro” (2011)
# Key:
# Assay type in all cases: functional
# A549 = experiment: Growth inhibition of human A549 cells assessed as cell growth at 0.1 uM after 48 hrs by SRB assay; details: A549, 48 h, read-out: Activity
# NCI-H322M = experiment: Growth inhibition of human NCI-H322M cells assessed as cell growth at 0.1 uM after 48 hrs by SRB assay; details: read-out: Activity
# LOX IMVI = experiment: Growth inhibition of human LOXIMVI cells assessed as cell growth at 1 uM after 48 hrs by SRB assay; details: read-out: Activity
# Malme-3M [1] = experiment: Growth inhibition of human MALME-3M cells after 48 hrs by […] growth inhibition assay
# SK-OV-3 = experiment: Growth inhibition of human SKOV3 cells assessed as cell growth at 100 uM after 48 hrs by SRB assay; details: SK-OV-3, 48 h, read-out: Activity
# CAKI-1 [2] = experiment: Growth inhibition of human Caki1 cells assessed as cell growth at 10 uM after 48 hrs by SRB assay; details: CAKI-1, 48 h, read-out: Activity
# HCC 2998 = experiment: Growth inhibition of human HCC2998 cells assessed as cell growth at 1 uM after 48 hrs by SRB assay; details: HCC 2998, 48 h, read-out: Activity
# KM12 [3] = experiment: Growth inhibition of human KM12 cells assessed as cell growth at 1 uM after 48 hrs by SRB assay; details: KM12, 48 h, read-out: Activity
# MDA-MB-231 = experiment: Growth inhibition of human MDA-MB-231 cells assessed as cell growth at 100 uM after 48 hrs by SRB assay; details: MDA-MB-231, 48 h, read-out: Activity
# UACC-62 = experiment: Growth inhibition of human UACC62 cells after 48 hrs by […] growth inhibition assay; details: UACC-62, 48 h
# HT-29 [4] = experiment: Growth inhibition of human HT-29 cells after 48 hrs by […] growth inhibition assay; details: HT-29, 48 h
# Malme-3M [5] = experiment: Growth inhibition of human MALME-3M cells assessed as cell growth at 1 mM after 48 hrs by SRB assay; details: read-out: Activity
# K562 = experiment: Growth inhibition of human K562 cells assessed as cell growth at 10 uM after 48 hrs by SRB assay; details: K562, 48 h, read-out: Activity
# HCT-15 = experiment: Growth inhibition of human HCT15 cells assessed as cell growth at 100 uM after 48 hrs by SRB assay; details: HCT-15, 48 h, read-out: Activity
# CAKI-1 [6] = experiment: Growth inhibition of human Caki1 cells assessed as cell growth at 1 mM after 48 hrs by SRB assay; details: CAKI-1, 48 h, read-out: Activity
# NCI-H460 = experiment: Growth inhibition of human NCI-H460 cells after 48 hrs by […] growth inhibition assay; details: NCI-H460, 48 h
# SNB-19 = experiment: Growth inhibition of human SNB19 cells assessed as cell growth at 1 uM after 48 hrs by SRB assay; details: SNB-19, 48 h, read-out: Activity
# HT-29 [7] = experiment: Growth inhibition of human HT-29 cells assessed as cell growth at 10 uM after 48 hrs by SRB assay; details: HT-29, 48 h, read-out: Activity
# KM12 [8] = experiment: Growth inhibition of human KM12 cells after 48 hrs by […] growth inhibition assay; details: KM12, 48 h
# NCI-H23 [9] = experiment: Growth inhibition of human NCI-H23 cells assessed as cell growth at 1 uM after 48 hrs by SRB assay; details: NCI-H23, 48 h, read-out: Activity
# NCI-H23 [10] = experiment: Growth inhibition of human NCI-H23 cells after 48 hrs by […] growth inhibition assay; details: NCI-H23, 48 h
# U-251 = experiment: Growth inhibition of human U251 cells assessed as cell growth at 0.1 uM after 48 hrs by SRB assay; details: U-251, 48 h, read-out: Activity
# SN12C = experiment: Growth inhibition of human SN12C cells assessed as cell growth at 1 mM after 48 hrs by SRB assay; details: read-out: Activity
# M14 = experiment: Growth inhibition of human M14 cells assessed as cell growth at 1 uM after 48 hrs by SRB assay; details: M14, 48 h, read-out: Activity
# NCI/ADR-RES = experiment: Growth inhibition of human NCI/ADR-RES cells assessed as cell growth at 0.1 uM after 48 hrs by SRB assay; details: read-out: Activity
# CAKI-1 [11] = experiment: Growth inhibition of human Caki1 cells assessed as cell growth at 0.1 uM after 48 hrs by SRB assay; details: CAKI-1, 48 h, read-out: Activity
# BT-549 = experiment: Growth inhibition of human BT549 cells assessed as cell growth at 1 mM after 48 hrs by SRB assay; details: BT-549, 48 h, read-out: Activity
# CCRF-CEM = experiment: Growth inhibition of human CCRF-CEM cells assessed as cell growth at 1 mM after 48 hrs by SRB assay; details: read-out: Activity
# HOP-92 = experiment: Growth inhibition of human HOP92 cells assessed as cell growth at 0.1 uM after 48 hrs by SRB assay; details: HOP-92, 48 h, read-out: Activity
# OVCAR-3 = experiment: Growth inhibition of human OVCAR3 cells assessed as cell growth at 1 uM after 48 hrs by SRB assay; details: OVCAR-3, 48 h, read-out: Activity
# EKVX = experiment: Growth inhibition of human EKVX cells assessed as cell growth at 0.1 uM after 48 hrs by SRB assay; details: read-out: Activity
# HL-60(TB) = experiment: Growth inhibition of human HL-60(TB) cells assessed as cell growth at 10 uM after 48 hrs by SRB assay; details: HL-60, 48 h, read-out: Activity
# IGROV-1 = experiment: Growth inhibition of human IGROV1 cells assessed as cell growth at 1 uM after 48 hrs by SRB assay; details: IGROV-1, 48 h, read-out: Activity
# [12] = read-out: LC50 (the source's name)
# [13] = read-out: pLC50 (the source's name) (converted)
compound,measurement,setting,value
CNC(=O)NC[C@H]1O[C@@H](n2cnc3c(NC(=O)Nc4ccccc4)ncnc32)[C@H](O[Si](C)(C)C(C)(C)C)[C@@H]1CC(=O)N(C)OC,growth at 0.1 µM,A549,97%
same,growth at 0.1 µM,NCI-H322M,97%
same,growth at 1 µM,LOX IMVI,96%
same,GI50,Malme-3M [1]; read-out: GI50,11.4 µM
same,LC50 (concentration killing 50% of cells),Malme-3M [1]; read-out: LC50,> 100 µM
same,TGI,Malme-3M [1]; read-out: TGI,> 100 µM
same,GI50,Malme-3M [1]; read-out: pGI50 (converted),11.5 µM
same,LC50 (concentration killing 50% of cells),Malme-3M [1]; read-out: pLC50 (converted),> 100 µM
same,TGI,Malme-3M [1]; read-out: pTGI (converted),> 100 µM
same,growth at 100 µM,SK-OV-3,82%
same,growth at 10 µM,CAKI-1 [2],76%
same,growth at 1 µM,HCC 2998,97%
same,growth at 1 µM,KM12 [3],108%
same,growth at 100 µM,MDA-MB-231,55%
same,GI50,UACC-62; read-out: GI50,41.9 µM
same,CC50,UACC-62; [12],> 100 µM
same,TGI,UACC-62; read-out: TGI,> 100 µM
same,GI50,UACC-62; read-out: pGI50 (converted),41.7 µM
same,CC50,UACC-62; [13],> 100 µM
same,TGI,UACC-62; read-out: pTGI (converted),> 100 µM
same,GI50,HT-29 [4]; read-out: GI50,5.37 µM
same,CC50,HT-29 [4]; [12],> 100 µM
same,TGI,HT-29 [4]; read-out: TGI,> 100 µM
same,GI50,HT-29 [4]; read-out: pGI50 (converted),5.37 µM
same,CC50,HT-29 [4]; [13],> 100 µM
same,TGI,HT-29 [4]; read-out: pTGI (converted),> 100 µM
same,growth at 1000 µM,Malme-3M [5],23%
same,growth at 10 µM,K562,82%
same,growth at 100 µM,HCT-15,40%
same,growth at 1000 µM,CAKI-1 [6],47%
same,GI50,NCI-H460; read-out: GI50,7.49 µM
same,CC50,NCI-H460; [12],> 100 µM
same,TGI,NCI-H460; read-out: TGI,> 100 µM
same,GI50,NCI-H460; read-out: pGI50 (converted),7.41 µM
same,CC50,NCI-H460; [13],> 100 µM
same,TGI,NCI-H460; read-out: pTGI (converted),> 100 µM
same,growth at 1 µM,SNB-19,93%
same,growth at 10 µM,HT-29 [7],100%
same,GI50,KM12 [8]; read-out: GI50,23.9 µM
same,CC50,KM12 [8]; [12],> 100 µM
same,TGI,KM12 [8]; read-out: TGI,> 100 µM
same,GI50,KM12 [8]; read-out: pGI50 (converted),24 µM
same,CC50,KM12 [8]; [13],> 100 µM
same,TGI,KM12 [8]; read-out: pTGI (converted),> 100 µM
same,growth at 1 µM,NCI-H23 [9],103%
same,GI50,NCI-H23 [10]; read-out: GI50,57.2 µM
same,CC50,NCI-H23 [10]; [12],> 100 µM
same,TGI,NCI-H23 [10]; read-out: TGI,> 100 µM
same,GI50,NCI-H23 [10]; read-out: pGI50 (converted),57.5 µM
same,CC50,NCI-H23 [10]; [13],> 100 µM
same,TGI,NCI-H23 [10]; read-out: pTGI (converted),> 100 µM
same,growth at 0.1 µM,U-251,97%
same,growth at 1000 µM,SN12C,49%
same,growth at 1 µM,M14,98%
same,growth at 0.1 µM,NCI/ADR-RES,109%
same,growth at 0.1 µM,CAKI-1 [11],85%
same,growth at 1000 µM,BT-549,26%
same,growth at 1000 µM,CCRF-CEM,23%
same,growth at 0.1 µM,HOP-92,80%
same,growth at 1 µM,OVCAR-3,107%
same,growth at 0.1 µM,EKVX,94%
same,growth at 10 µM,HL-60(TB),84%
same,growth at 1 µM,IGROV-1,89%
